This assay deals with T1, G6 polypeptide (Homo sapiens, UniProt Q9BYG0).
T1 construct: In order to obtain a DNA encoding the full-length G6 polypeptide, PCR was carried out; expressed in transfected cells; Triton X-100 cell extract
T1 sequence (Q9BYG0 1-378): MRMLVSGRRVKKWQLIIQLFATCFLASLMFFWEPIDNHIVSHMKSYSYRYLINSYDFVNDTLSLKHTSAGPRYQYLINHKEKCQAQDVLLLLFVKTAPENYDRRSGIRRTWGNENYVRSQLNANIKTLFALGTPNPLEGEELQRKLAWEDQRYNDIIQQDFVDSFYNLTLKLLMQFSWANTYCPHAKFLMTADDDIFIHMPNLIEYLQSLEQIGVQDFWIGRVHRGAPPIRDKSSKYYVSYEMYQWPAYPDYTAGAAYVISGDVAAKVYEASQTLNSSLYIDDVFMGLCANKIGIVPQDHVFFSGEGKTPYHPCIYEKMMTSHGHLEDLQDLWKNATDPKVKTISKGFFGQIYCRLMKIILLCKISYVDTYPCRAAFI
In words: β1,3-N-acetylglucosaminyltransferase activity of cell extract of Namalwa cells transfected with pAMo-G6, 2-aminobenzamide-labeled oligosaccharide substrates. In kind it is biochemical. The following applies: cell extract (20 μg protein) of pAMo-G6-transfected Namalwa cells; 2-aminobenzamide-labeled substrate; 37° C., 16 hours. Here is the method:
The transformant cells (about 2×10^7 cells) obtained in Example 6(1) were put into a microtube (1.5 ml: manufactured by Eppendorf), and the cells were collected by centrifugation (550×g, 7 minutes). The cells were washed with 0.9 ml of PBS, the washed cells were suspended in a solution (100 μl) containing 20 mmol/l HEPES (pH 7.2) and 2% Triton X-100 and then the cells were disrupted using a sonicator (Bioruptor; manufactured by COSMO BIO). After the mixture was allowed to stand at 4° C. for 1 hour, the supernatant was obtained by centrifugation (550×g, 7 minutes). The supernatant was used as an enzyme sample.
A β1,3-N-acetylglucosaminyltransferase activity was measured by using this enzyme sample and 2-aminobenzamide-labeled sugar chain substrates. […]
The activity measurement was carried out using known methods [FEBS, 462, 289 (1999), J. Biol. Chem., 269, 14730-14737 (1994), J. Biol. Chem., 267, 23507 (1992), J. Biol. Chem., 267, 2994 (1992)]. Specifically, the reaction was carried out at 37° C. for 16 hours in 20 μl of an assay solution [150 mmol/l MOPS (pH 7.5), 50 mmol/l UDP-GlcNAc (manufactured by SIGMA), 20 mmol/l sodium cacodylate (pH 7.2), 0.4% Triton CF-54, 10 mmol/l MnCl2, 15 mmol/l 2-aminobenzamide-labeled sugar chain substrate, the above cell extract (20 μg as protein)], and then the product was detected by high performance liquid chromatography (HPLC). […]

With `CC(=O)N[C@H]1[C@H](O[C@H]2[C@@H](O)[C@@H](CO)O[C@@H](O[C@H]3[C@H](O)[C@@H](NC(C)=O)C(O)O[C@@H]3CO)[C@@H]2O)O[C@H](CO)[C@@H](O[C@@H]2O[C@H](CO)[C@H](O)[C@H](O)[C@H]2O)[C@@H]1O` (some centres unmarked) [2LN, Galβ1-4GlcNAcβ1-3Galβ1-4GlcNAc], the “ratio of the substrate converted into the product” value is 3.95%.
With `CC(=O)N[C@H]1[C@H](O[C@H]2[C@@H](O)[C@@H](CO)O[C@@H](O[C@H]3[C@H](O)[C@@H](O)C(O)O[C@@H]3CO)[C@@H]2O)O[C@H](CO)[C@@H](O[C@@H]2O[C@H](CO)[C@H](O)[C@H](O)[C@H]2O)[C@@H]1O` (mixture of isomers) [LNnT, lacto-N-neotetraose] the figure was 6.11%.

The values above are taken from patent US7629150B2, “Transformed cell harboring DNA or RNA encoding sugar chain synthesizing agent having β1,3-N-acetylglucosaminyltransferase activity” (Kyowa Hakko Kirin Co., Ltd., priority 2000, dated 2009).
